Results taken from PubChem BioAssay (NCI).
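Exposure lasted 48 hours, with cells grown in 96-well plates and compounds tested at five concentrations. Here, GI50 denotes the concentration required for 50% inhibition of growth. TGI marks complete inhibition of growth.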

What was measured:
Test in all cases: inhibition of tumour cell growth, NCI panel, 48 h
[1] = tested on: HOP-92 NSCLC
[2] = tested on: OVCAR-4 ovarian
[3] = tested on: IGROV1 ovarian
[4] = tested on: OVCAR-8 ovarian
[5] = tested on: RXF 393 renal
[6] = tested on: CAKI-1 renal
[7] = tested on: HL-60(TB) leukemia
[8] = tested on: K-562 leukemia
[9] = tested on: SK-MEL-5 melanoma
[10] = tested on: OVCAR-5 ovarian

| Compound | TGI [1] | TGI [2] | TGI [3] | TGI [4] | TGI [5] | TGI [6] | TGI [7] | TGI [8] | TGI [9] | TGI [10] | GI50 [1] | GI50 [2] | GI50 [3] | GI50 [4] | GI50 [5] | GI50 [6] | GI50 [7] | GI50 [8] | GI50 [9] | GI50 [10] |
| --- | --- | --- | --- | --- | --- | --- | --- | --- | --- | --- | --- | --- | --- | --- | --- | --- | --- | --- | --- | --- |
| CCCCCCCCCCCCCCCCOP(=O)(O)Oc1ccc(/C=C\c2ccc(OP(=O)(O)OCCCCCCCCCCCCCCCC)cc2)cc1 | 67.1 µM | > 100 µM | > 100 µM | 56.1 µM | 9.1 µM | > 100 µM | 53.1 µM | > 100 µM | > 100 µM | > 100 µM | – | – | – | – | – | – | – | – | – | – |
| COc1ccc(-c2cc3c(nn2)-c2ccccc2C3=O)cc1 | > 100 µM | > 100 µM | > 100 µM | > 100 µM | > 100 µM | > 100 µM | > 100 µM | > 100 µM | > 100 µM | > 100 µM | > 100 µM | > 100 µM | > 100 µM | > 100 µM | > 100 µM | > 100 µM | > 100 µM | > 100 µM | > 100 µM | > 100 µM |
| COc1cc(C2c3cc4c(cc3[C@H](OCCN(C)C)[C@@H]3COC(=O)C23)OCO4)cc(OC)c1O (stereo partly specified) | 1.5 µM | 4.97 µM | 7.5 µM | 2.92 µM | 1.55 µM | 1.07 µM | 0.118 µM | 15.9 µM | 1.74 µM | 3.82 µM | – | – | – | – | – | – | – | – | – | – |
| O=C(O)C(Sc1ccc(Cl)cc1)Sc1ccc(Cl)cc1 | 68.2 µM | > 100 µM | > 100 µM | > 100 µM | > 100 µM | > 100 µM | > 100 µM | > 100 µM | > 100 µM | > 100 µM | – | – | – | – | – | – | – | – | – | – |
| COC(=O)c1cc2c(c(C(=O)OC)c1O)C(=O)C=CC2=O | > 21.9 µM | > 54 µM | > 58.6 µM | > 40.4 µM | > 48.9 µM | > 100 µM | > 24.4 µM | > 22.7 µM | > 55.1 µM | > 54.6 µM | – | > 9.1 µM | > 9.1 µM | > 9.1 µM | > 9.1 µM | > 100 µM | – | – | > 9.1 µM | – |
| Cc1ccc(C(=O)/C=C/c2ccccc2O)c(C)c1 | > 100 µM | > 100 µM | > 100 µM | > 100 µM | > 100 µM | > 100 µM | > 100 µM | > 100 µM | > 100 µM | > 100 µM | – | – | – | – | – | – | – | – | – | – |
| COc1cc(Cn2c(-c3ccccc3)cc3c2-c2oncc2CC3)cc(OC)c1OC | > 100 µM | > 100 µM | > 100 µM | > 100 µM | 50.5 µM | > 100 µM | 1.36 µM | > 100 µM | 16.8 µM | > 100 µM | 12.7 µM | 3.12 µM | 2.64 µM | 5.38 µM | 1.36 µM | 0.566 µM | 0.32 µM | 0.364 µM | 0.882 µM | 6.46 µM |
| COC(=O)C(=O)C(C(=O)C=C(C)C)C(=O)C(=O)Nc1ccc(Cl)cc1C (stereo unspecified) | > 100 µM | > 100 µM | > 100 µM | > 100 µM | > 100 µM | > 100 µM | > 100 µM | > 100 µM | > 100 µM | > 100 µM | – | – | – | – | – | – | – | – | – | – |
| CC(C)CSc1nc(Nc2ccccc2)c(C#N)c(-c2ccc(F)cc2)n1 | 2.63 µM | 1.16 µM | 10 µM | 16.1 µM | 6.18 µM | 2.46 µM | > 100 µM | > 100 µM | 82.4 µM | 24 µM | 0.605 µM | 0.335 µM | 0.702 µM | 3.27 µM | 1.75 µM | 0.486 µM | > 100 µM | 5.31 µM | 24.7 µM | 4.03 µM |
| COc1cc([C@@H]2c3cc4c(cc3C(O[C@@H]3O[C@@H]5CO[C@@H](c6cccs6)OC5[C@H](O)[C@H]3O)C3COC(=O)[C@@H]32)OCO4)cc(OC)c1O (stereo partly specified) | 1.25 µM | 3.95 µM | 5.13 µM | 1.09 µM | 0.534 µM | 6.98 µM | 0.0527 µM | 19.3 µM | 0.573 µM | 5.3 µM | 0.0461 µM | 0.401 µM | 0.228 µM | 0.0856 µM | 0.105 µM | 0.0997 µM | 0.0104 µM | 0.111 µM | 0.0567 µM | 0.382 µM |
| N#CCCN(CCC#N)c1ccc(C(=O)NN)cc1 | > 100 µM | > 100 µM | > 100 µM | > 100 µM | > 100 µM | > 100 µM | > 100 µM | > 100 µM | > 100 µM | > 100 µM | – | – | – | – | – | – | – | – | – | – |
| O=C(CCCSc1nc(-c2ccc(Cl)cc2)cc(-c2ccc(Cl)cc2)n1)NO | 11.7 µM | 14.1 µM | 11.2 µM | 28.6 µM | 1.86 µM | 10.7 µM | 8 µM | > 100 µM | 4.06 µM | 9.01 µM | 2.51 µM | 0.603 µM | 1.15 µM | 0.558 µM | 0.347 µM | 0.334 µM | 1.61 µM | 0.727 µM | 1.86 µM | 1.42 µM |
| C=C1C(=O)O[C@H]2[C@H]1CC/C(COC(=O)/C=C\C(=O)NCc1ccc(Cn3c(=O)sn(-c4ccc(C#N)cc4)c3=O)cc1)=C\CC[C@@]1(C)O[C@@H]21 | 1.45 µM | 1.37 µM | 1.3 µM | 2.7 µM | 1.22 µM | 1.08 µM | 3.49 µM | 50 µM | 1.55 µM | 1.84 µM | 0.622 µM | 0.672 µM | 0.592 µM | 0.802 µM | 0.576 µM | 0.354 µM | 0.961 µM | 0.707 µM | 0.842 µM | 0.868 µM |
| CN(C)C(=S)SN(C)C(=O)Nc1ccccc1 | 22.2 µM | 53.5 µM | > 100 µM | > 93.7 µM | 6.31 µM | 60.5 µM | > 71.7 µM | > 100 µM | 46.4 µM | > 76 µM | – | – | – | – | – | – | – | – | – | – |
| NCCCNCCSSCCCCS(=O)O | > 100 µM | 28.2 µM | > 100 µM | > 100 µM | 79.8 µM | > 100 µM | 40.7 µM | > 100 µM | 32.7 µM | > 100 µM | – | – | – | – | – | – | – | – | – | – |
| COc1ccc(-n2cc(-c3cc(OC)c(OC)c(OC)c3)[nH]c2=S)cc1OC | > 100 µM | > 100 µM | > 100 µM | > 100 µM | > 100 µM | > 100 µM | > 100 µM | > 100 µM | > 100 µM | > 100 µM | > 100 µM | > 100 µM | > 100 µM | > 100 µM | > 100 µM | > 100 µM | > 100 µM | > 100 µM | > 100 µM | > 100 µM |
| COc1ccc(-c2nc(-c3nc4ccc(C)cc4[nH]3)c3ccccn23)cc1 | 4.36 µM | > 100 µM | 6.12 µM | 6.15 µM | > 100 µM | > 100 µM | 6.53 µM | > 100 µM | 2.72 µM | > 100 µM | 0.416 µM | 3.81 µM | 2.18 µM | 2.05 µM | 7.73 µM | 2.83 µM | 2.58 µM | 2.92 µM | 1.39 µM | 4.69 µM |
| CSc1nc(NC2OC(COC(C)=O)C(OC(C)=O)C(OC(C)=O)C2OC(C)=O)c2c(OC(C)=O)c(C)c(=O)oc2n1 (stereo unspecified) | > 100 µM | > 100 µM | > 100 µM | > 100 µM | > 100 µM | > 100 µM | > 100 µM | > 100 µM | > 100 µM | > 100 µM | – | – | – | – | – | – | – | – | – | – |
| Cc1c2c(nn1-c1ccc(S(=O)(=O)/N=C3\SCC(=O)N3C(=O)c3ccccc3)cc1)-c1ccccc1CC2 | 66.2 µM | > 100 µM | > 100 µM | > 100 µM | 77.5 µM | 65.9 µM | > 100 µM | > 100 µM | 48.9 µM | > 100 µM | 30.9 µM | 77.5 µM | > 100 µM | 68.8 µM | 28.8 µM | 26.6 µM | 65.5 µM | 79.2 µM | 25.1 µM | 49.9 µM |
| N#C/C(C(=S)Nc1ccccc1)=C1/NN=C2c3ccccc3C(=O)NN21 | 88.7 µM | 91.2 µM | > 100 µM | > 100 µM | 22.9 µM | > 100 µM | 61.7 µM | > 100 µM | 41.1 µM | > 100 µM | 29.2 µM | 26.2 µM | 35.6 µM | 32 µM | 0.512 µM | 34.7 µM | 22 µM | 22.1 µM | 17 µM | 56.1 µM |
